Assays:
Conditions in all cases: CAMHB, incubation time 20 h
[1] = compound: CC(C)(O/N=C(\C(=O)N[C@@H]1C(=O)N2C(C(=O)[O-])=C(C[N+]3(CCNC(=O)c4ccc(O)c(O)c4Cl)CCCC3)CS[C@H]12)c1csc(N)n1)C(=O)O [cefiderocol]
[2] = compound: C[C@@H](O)[C@H]1C(=O)N2C(C(=O)O)=C(S[C@@H]3CN[C@H](C(=O)N(C)C)C3)[C@H](C)[C@H]12 [meropenem]
[3] = compound: CC(C)(O/N=C(\C(=O)N[C@@H]1C(=O)N2C(C(=O)[O-])=C(C[n+]3ccccc3)CS[C@H]12)c1csc(N)n1)C(=O)O [ceftazidime]

Test System	MIC ([1]; avibactam 0 µg/mL) [µg/mL]	MIC ([1]; avibactam 8 µg/mL) [µg/mL]	MIC ([2]; avibactam 0 µg/mL) [µg/mL]	MIC ([2]; avibactam 8 µg/mL) [µg/mL]	MIC ([3]; avibactam 0 µg/mL) [µg/mL]	MIC ([3]; avibactam 8 µg/mL) [µg/mL]
A. xylosoxidans ACH02	0.25	0.25	1	1	2	2
A. xylosoxidans ACH03	0.125	0.125	0.25	0.25	1	1
A. xylosoxidans ACH09	0.25	0.25	0.125	0.125	1	1
B. cenocepacia 110041	0.0625	0.0625	32	4	–	–
B. cenocepacia 130723	0.5	0.25	4	1	16	8
B. cenocepacia 134991	> 4	> 4	2	2	8	8
B. cenocepacia BC7	> 4	> 4	16	1	16	16
B. cenocepacia F3071909	> 4	> 4	16	2	32	32
B. cenocepacia F4200989-3	2	1	32	4	128	32
B. cenocepacia F9141525	0.5	0.5	32	4	128	16
B. cenocepacia G11815681	2	0.5	32	2	16	8
B. cenocepacia K56-2	0.125	0.125	16	2	32	–
B. cenocepacia VC10414	0.125	0.125	32	2	8	–
B. cenocepacia VC14488	0.25	0.25	4	1	–	2
B. cenocepacia VC14543	0.125	0.0625	16	4	8	8
B. cenocepacia VC14761	0.125	0.0625	4	1	2	2
B. contaminans 21NG595759	1	2	32	8	16	8
B. contaminans 21NG609698	2	2	32	8	16	–
B. contaminans LMG23361	0.125	0.125	4	0.5	2	2
B. dolosa AU0645	> 4	> 4	16	2	> 128	8
B. dolosa AU2167	> 4	> 4	32	1	64	–
B. dolosa AU6940	2	2	32	2	16	16
B. dolosa CEP021	0.5	0.5	2	1	2	1
B. dolosa LM018941	> 4	> 4	16	0.5	16	2
B. gladioli 113611	4	4	2	2	32	32
B. gladioli 132208	0.5	0.5	0.5	0.5	2	2
B. gladioli VC14812	0.5	0.5	8	8	32	16
B. gladioli VC19233	0.25	0.25	1	1	–	2
B. multivorans 130034	0.125	0.125	8	4	8	8
B. multivorans LM013010	0.25	0.25	8	1	–	–
